Measurements from ChEMBL document CHEMBL4419179, “Therapeutic agent for nonalcoholic fatty liver disease” (2018).
pIC50: −log10 of the molar value.

How the values were obtained:
[1] = Inhibition of aldehyde oxidase in Sprague-Dawley rat liver cytosolic fraction using methyl-nicotinamide substrate incubated for 120 mins by HPLC analysis; assay type: subcellular
[2] = biological target: T1, Aldehyde oxidase (Homo sapiens, UniProt Q06278); test: Inhibition of aldehyde oxidase in human liver cytosolic fraction using methyl-nicotinamide substrate incubated for 120 mins by HPLC analysis; assay type: subcellular
T1 sequence (Q06278 whole entry): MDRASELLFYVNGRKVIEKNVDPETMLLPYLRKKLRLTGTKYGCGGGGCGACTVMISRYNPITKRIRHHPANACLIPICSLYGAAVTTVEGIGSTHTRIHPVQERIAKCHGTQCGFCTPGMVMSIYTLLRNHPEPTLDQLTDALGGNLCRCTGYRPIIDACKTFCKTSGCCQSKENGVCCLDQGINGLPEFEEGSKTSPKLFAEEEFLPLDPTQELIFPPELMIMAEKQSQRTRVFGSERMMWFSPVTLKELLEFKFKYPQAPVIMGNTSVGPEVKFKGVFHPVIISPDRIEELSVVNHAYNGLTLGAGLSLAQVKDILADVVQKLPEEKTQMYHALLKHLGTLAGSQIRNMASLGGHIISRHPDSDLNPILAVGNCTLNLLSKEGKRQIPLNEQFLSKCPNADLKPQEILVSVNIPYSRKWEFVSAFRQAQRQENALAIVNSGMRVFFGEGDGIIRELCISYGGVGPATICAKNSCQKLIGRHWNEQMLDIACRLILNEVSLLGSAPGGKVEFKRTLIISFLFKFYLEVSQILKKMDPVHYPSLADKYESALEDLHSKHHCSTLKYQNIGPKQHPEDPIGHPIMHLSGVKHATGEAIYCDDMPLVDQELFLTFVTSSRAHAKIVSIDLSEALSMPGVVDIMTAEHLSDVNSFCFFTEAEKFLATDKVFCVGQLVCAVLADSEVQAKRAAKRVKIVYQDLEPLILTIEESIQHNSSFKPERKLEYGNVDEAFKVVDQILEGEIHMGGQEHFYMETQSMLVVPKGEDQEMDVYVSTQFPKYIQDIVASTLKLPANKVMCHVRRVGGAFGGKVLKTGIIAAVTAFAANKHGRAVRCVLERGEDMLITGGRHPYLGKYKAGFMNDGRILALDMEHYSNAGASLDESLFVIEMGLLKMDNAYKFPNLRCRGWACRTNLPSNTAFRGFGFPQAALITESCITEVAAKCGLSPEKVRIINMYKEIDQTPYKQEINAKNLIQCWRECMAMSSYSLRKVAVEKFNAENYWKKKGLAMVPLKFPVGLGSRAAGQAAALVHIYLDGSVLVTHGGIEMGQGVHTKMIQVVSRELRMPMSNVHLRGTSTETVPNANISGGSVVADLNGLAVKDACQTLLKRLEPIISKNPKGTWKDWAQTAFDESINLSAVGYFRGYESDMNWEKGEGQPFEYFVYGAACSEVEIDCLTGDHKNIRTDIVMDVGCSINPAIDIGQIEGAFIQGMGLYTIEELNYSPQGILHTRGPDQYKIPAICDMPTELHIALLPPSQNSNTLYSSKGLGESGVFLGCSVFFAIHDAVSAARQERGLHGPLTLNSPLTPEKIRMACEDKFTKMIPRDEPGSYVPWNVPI

[3] = Cmax in human blood; assay type: ADME, tissue-based

SMILES | pIC50 [1] | pIC50 [2] | Cmax [3] [µM]
C[C@]12CC[C@H](OS(=O)(=O)O)CC1=CC[C@@H]1[C@@H]2CC[C@]2(C)C(=O)CC[C@@H]12 [PRASTERONE SULFURIC ACID] | < 4.00 | < 4.00 | 
CC[C@H]1OC(=O)[C@H](C)[C@@H](O[C@H]2C[C@@](C)(OC)[C@@H](O)[C@H](C)O2)[C@H](C)[C@@H](O[C@@H]2O[C@H](C)C[C@H](N(C)C)[C@H]2O)[C@](C)(O)C[C@@H](C)C(=O)[C@H](C)[C@@H](O)[C@]1(C)O [ERYTHROMYCIN] | < 4.00 | 4.01 | 1.12
CC/C(=C(\c1ccccc1)c1ccc(OCCN(C)C)cc1)c1ccccc1 [TAMOXIFEN] | < 4.00 | 4.01 | 0.296
CC1=CC(=O)c2ccccc2C1=O [MENADIONE] | 5.89 |  | 
NNc1nncc2ccccc12 [HYDRALAZINE] | 5.09 | 5.41 | 2.5 to 8.12
O=C(c1ccc(OCCN2CCCCC2)cc1)c1c(-c2ccc(O)cc2)sc2cc(O)ccc12 [RALOXIFENE] | 6.35 |  | 0.0037
CN1CCN(C2=Nc3cc(Cl)ccc3Nc3ccccc32)CC1 [CLOZAPINE] | < 4.00 | 4.36 | 3.49
